The substances below were run against BoNT A light chain (BoNT A Lc) (Clostridium botulinum, UniProt P0DPI0).
Sequence of BoNT A light chain (BoNT A Lc) (P0DPI0 2-448 limits assumed): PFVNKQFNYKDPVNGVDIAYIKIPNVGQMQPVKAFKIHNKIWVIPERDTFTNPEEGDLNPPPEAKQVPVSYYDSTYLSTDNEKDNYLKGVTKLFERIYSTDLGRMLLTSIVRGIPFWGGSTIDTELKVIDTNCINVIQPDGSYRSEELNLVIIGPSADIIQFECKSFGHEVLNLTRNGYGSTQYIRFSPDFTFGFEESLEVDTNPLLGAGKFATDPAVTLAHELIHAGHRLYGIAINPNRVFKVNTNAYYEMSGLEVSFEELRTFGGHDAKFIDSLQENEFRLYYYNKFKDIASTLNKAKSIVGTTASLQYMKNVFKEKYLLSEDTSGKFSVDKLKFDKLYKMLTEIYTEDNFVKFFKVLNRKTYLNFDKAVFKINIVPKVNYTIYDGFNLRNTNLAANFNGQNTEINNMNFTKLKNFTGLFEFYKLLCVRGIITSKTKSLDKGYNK
Format: biochemical
With “N R V R I D A A N Q R A T R M [Peptide P5]” the “effect of substitution or truncation on hydrolysis rate (in words)” value (“effect of substitution or truncation” for short) was “enhanced cleavage velocity”.
In the case of “S N K V R I D Q A N Q R A T K M L [Peptide P3]”, the “effect of substitution or truncation” value was “further enhanced the rate”.
With “S N R V R I D Q A N Q R A T R M L [Peptide P4]” the “effect of substitution or truncation” value was “had no effect”.
V R I D A A N Q R A T R M [Peptide P7] was tested, and the “effect of substitution or truncation” value was “decreased the hydrolysis rate significantly”.
